Measurements: ChEMBL document CHEMBL1201862, “PubChem BioAssay data set” (2004)
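Each compound was tested at five concentrations against cells in 96-well plates for 48 hours. GI50 marks 50% less growth.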 Active and inactive are the calls of the source. Rule as the data show it: active = GI50 up to about 1.1 µM and inactive = higher.

What was measured:
Experiment in all cases: NCI anticancer screen, dose series, 48 h
OVCAR-8 = tested on: OVCAR-8
SF-295 = tested on: SF-295
BT-549 = tested on: BT-549
SK-MEL-28 = tested on: SK-MEL-28
UACC-257 = tested on: UACC-257
HCT-116 = tested on: HCT-116
SK-OV-3 = tested on: SK-OV-3
SW-620 = tested on: SW-620
PC-3 = tested on: PC-3
RPMI-8226 = tested on: RPMI-8226
OVCAR-4 = tested on: OVCAR-4
RXF 393 = tested on: RXF 393
MCF7 = tested on: MCF7
SK-MEL-5 = tested on: SK-MEL-5
NCI-H522 = tested on: NCI-H522
HOP-92 = tested on: HOP-92
UACC-62 = tested on: UACC-62
HT-29 = tested on: HT-29
NCI-H23 = tested on: NCI-H23
HOP-62 = tested on: HOP-62

Measured: GI50

CC(C)(C)c1cc(C2COC(=O)COCCOCC(=O)OCCOCCO2)cc(C(C)(C)C)c1O (stereo not given)
inactive: OVCAR-8 41.6 µM | SF-295 24 µM | BT-549 > 51.1 µM | SK-MEL-28 37.2 µM | UACC-257 > 71.6 µM | HCT-116 > 68.2 µM | SK-OV-3 32.1 µM | SW-620 53.6 µM | PC-3 22.4 µM | RPMI-8226 > 100 µM | OVCAR-4 > 100 µM | RXF 393 23.1 µM | MCF7 > 100 µM | SK-MEL-5 > 100 µM | NCI-H522 > 47 µM | HOP-92 24.7 µM | UACC-62 47.9 µM | HT-29 37.2 µM | NCI-H23 42.7 µM | HOP-62 36.2 µM

CC(=O)OC1=CC2(OC(C)=O)CC(C)(C)C1C1C(=O)C=CC(=O)C12 (stereo not given)
inactive: OVCAR-8 > 58.2 µM | SF-295 > 75 µM | BT-549 11.3 µM | SK-MEL-28 41.4 µM | UACC-257 > 100 µM | HCT-116 > 51.3 µM | SK-OV-3 > 100 µM | SW-620 > 65 µM | PC-3 57.8 µM | RPMI-8226 > 66.8 µM | OVCAR-4 > 100 µM | RXF 393 44.6 µM | MCF7 32.7 µM | SK-MEL-5 > 85.3 µM | NCI-H522 > 36.5 µM | HOP-92 42.5 µM | UACC-62 15.7 µM | HT-29 19.8 µM | NCI-H23 > 73.1 µM | HOP-62 > 80.9 µM

COC(=O)C1CC23C=CCN4CC(C2C)C2(c5ccccc5NC12)C43 (stereo not given)
inactive: OVCAR-8 > 100 µM | SF-295 > 100 µM | BT-549 > 100 µM | SK-MEL-28 > 100 µM | UACC-257 > 100 µM | HCT-116 > 100 µM | SK-OV-3 > 100 µM | SW-620 > 100 µM | PC-3 > 100 µM | RPMI-8226 > 100 µM | OVCAR-4 > 100 µM | RXF 393 > 100 µM | MCF7 > 100 µM | SK-MEL-5 > 100 µM | NCI-H522 > 100 µM | HOP-92 > 100 µM | UACC-62 > 100 µM | HT-29 > 100 µM | NCI-H23 > 100 µM | HOP-62 > 100 µM
